From patent US20150119363A1, “METHODS OF TREATING BACTERIAL INFECTIONS” (Rampex Pharmaceuticals, Inc., priority 2012, published 2015)
Values after ≈ are worked out from the molar mass of the structure shown. Where two headings read alike, the source gives them in different places.

How the values were obtained:
Format in all cases: cell-based
[1] = test system: E. coli EC1061 (NDM-1 CMY-6); assay: Aztreonam/Tigemonam MIC at various concentrations of BLI; conditions: for MIC: Escherichia coli, E. coli EC1061, read-out: Tigemonam MIC
Method: MIC values for each bacterial strain were measured for each antimicrobial compound at various concentrations of each BLI. […]

[2] = test system: bacterial strains that expressed the beta-lactamase, NDM-1 and CMY-6; assay: Aztreonam/Tigemonam MIC at various concentrations of BLI (summary)
Method: (§1) MIC values for each bacterial strain were measured for each antimicrobial compound at various concentrations of each BLI.

[3] = test system: K. pneumoniae KP1081 (NDM-1, CMY-6, SHV-11, CTX-M-15, TEM-1); assay: Aztreonam/Tigemonam MIC at various concentrations of BLI; conditions: KP1081
Method: as §1

[4] = test system: E. coli EC1061 (NDM-1 CMY-6); assay: as above; conditions: Compound 68 0 μg/ml

Row | Tigemonam MIC (μg/ml) in the presence of BLI ([1]; EC1061, Compound 5 0 μg/ml) [µg/mL] | MIC ([1]; tigemonam alone) [µg/mL] | Tigemonam MIC (μg/ml) in the presence of BLI ([3]; Compound 5 0 μg/ml) [µg/mL] | Tigemonam MIC (μg/ml) in the presence of BLI ([3]; Compound 68 0 μg/ml) [µg/mL] | Tigemonam MIC (μg/ml) in the presence of BLI [4] [µg/mL] | Compound | MIC ([1]; with 0.31 μg/ml Compound A) [µg/mL] | effect on Aztreonam or Tigemonam MICs [2]
1 |  |  |  |  |  | O=C(O)C[C@H]1C=CC[C@H](NC(=O)Cc2cccs2)B(O)O1 [Compound 68, 2-((3R,7S)-2-hydroxy-3-(2-(thiophen-2-yl)acetamido)-2,3,4,7-tetrahydro-1,2-oxaborepin-7-yl)acetic acid] | 0.5 (≈ 1.62 µM) | decreased the Aztreonam or Tigemonan MICs
2 | 8 | 8 (≈ 18.3 µM) | 16 | 16 | 16 | CC1(C)[C@H](NC(=O)/C(=N\OCC(=O)O)c2csc(N)n2)C(=O)N1OS(=O)(=O)O [Tigemonam, reference compound] |  | 
